Results taken from patent publication US9593305B2, “Differentiation of pluripotent stem cells” (Janssen Biotech, Inc., priority 2008, dated 2017).

Test system: H1 human embryonic stem cells
Experiment: Step-wise differentiation, high content analysis of SOX17, PDX1, CDX2, insulin, glucagon (Example 12)
Format: cell-based
Description: The assay was initiated by aspirating the culture medium from each well and adding back an aliquot (0.5 ml) of test medium. Test conditions for the first step of differentiation were conducted over a three-day period, feeding daily by aspirating and replacing the medium from each well with fresh test medium. On the first day of assay, 100 ng/ml activin A (PeproTech; Cat #120-14) or 200 ng/ml GDF-8 (R&D Systems, Cat #788-G8) was added to respective assay wells where each growth factor was diluted into RPMI-1640 medium (Invitrogen; Cat #22400) with 1% Albumin Bovine Fraction V, Fatty Acid Free (FAF BSA) (MP Biomedicals, Inc; Cat 152401), 1% Probumin (Millipore; Cat #81-068-3) and 20 ng/ml Wnt3a (R&D Systems; Cat #1324-WN/CF). On the second day of assay, 100 ng/ml activin A or 200 ng/ml GDF-8 was diluted into RPMI-1640 medium supplemented with 2% FAF BSA without Wnt3a. In some test samples using GDF-8, Wnt3a was replaced with a either Compound 34 or Compound 56 at a concentration of 2.5 μM, and either Compound 34 or Compound 56 was added daily during all three days of definitive endoderm differentiation. At the conclusion of the first step of differentiation, cells from some wells were harvested for flow cytometry analysis to evaluate levels of CXCR4, a marker of definitive endoderm formation. […]

GDF-8: growth factor GDF-8, also known as myostatin, member of the TGF-β family
normalized protein levels of insulin and glucagon after step 5 (GDF-8 versus activin A treatment groups in step 1): equivalent expression between the Activin A and GDF-8 treatment groups
normalized Pdx1 and Cdx2 protein expression after step 3 (GDF-8 with Wnt3a or with a compound in step 1): equivalent levels of PDX1 and CDX2
